≈ marks a conversion by molar mass, not a printed value.
What was measured:
[1] = Oral bioavailability in rat at 10 mg/kg; assay type: ADME, organism-based; details: in vivo
[2] = Lipophilicity, log D of compound by HPLC analysis; assay type: physicochemical
[3] = Tmax in po dosed C57BL/6 mouse; assay type: ADME, organism-based; details: in vivo
[4] = system: Plasma; experiment: Plasma concentration in C57BL/6 mouse at 3 to 30 mg/kg, po; assay type: ADME, organism-based; details: in vivo
[5] = system: Brain; experiment: Drug uptake in C57BL/6 mouse brain at 30 mg/kg, po; assay type: ADME, organism-based; details: in vivo
[6] = Drug uptake in CSF of C57BL/6 mouse at 30 mg/kg, po; assay type: ADME, organism-based, Cerebrospinal fluid; details: in vivo
[7] = Kinetic solubility of the compound at pH 7 by HPLC analysis; assay type: physicochemical; details: buffer, read-out: Kinetic_solubility
[8] = Kinetic solubility of the compound at pH 2 by HPLC analysis; assay type: physicochemical; details: buffer, read-out: Kinetic_solubility
[9] = system: Plasma; experiment: Plasma concentration in C57BL/6 mouse at 1 to 10 mg/kg, po; assay type: ADME, organism-based; details: in vivo
[10] = system: Rattus norvegicus; experiment: Intrinsic clearance in rat at 0.05 mg/kg, iv administered in cassette format or 2 mg/kg, iv administered as single dose or 10 mg/kg, po; assay type: ADME, organism-based; details: in vivo

Compound | bioavailability [1] | logD [2] | CL [10] | other results
O=S(=O)(Nc1nccs1)c1cc(Cl)c(NCC23CCCN2CCC3)cc1F | 40% | 0.7 |  | Tmax [3]: 3 h; concentration [4]: 420 nM; Drug uptake [5]: 6%; Drug uptake [6]: 1%; solubility kinetic [7]: 43 µM (≈ 18.5 µg/mL); solubility kinetic [8]: 159 µM (≈ 68.5 µg/mL)
CC1(C)CN2CCC[C@]2(CNc2cc(F)c(S(=O)(=O)Nc3nccs3)cc2Cl)C1 | 61% | 1.7 | 460 mL/min/kg | concentration [9]: 250 nM; Tmax [3]: 3 h; solubility kinetic [7]: 28 µM (≈ 12.9 µg/mL); solubility kinetic [8]: 143 µM (≈ 65.6 µg/mL)
Cc1nc(NS(=O)(=O)c2cc(Cl)c(NCC34CCCN3CCC4)cc2F)sc1F |  | 1.3 | 630 mL/min/kg | 
O=S(=O)(Nc1ncns1)c1cc(Cl)c(NCC23CCCN2CCC3)cc1F |  | 0.4 | 660 mL/min/kg | 
O=S(=O)(Nc1nccs1)c1cc(Cl)c(NCC23CCCCN2CCCC3)cc1F |  | 2.2 | 3000 mL/min/kg | 
Cc1cnc(NS(=O)(=O)c2cc(Cl)c(NCC34CCCN3CCC4)cc2F)s1 |  | 1.1 | 560 mL/min/kg | 
O=S(=O)(Nc1ccncn1)c1cc(Cl)c(NCC23CCCN2CCC3)cc1F |  | -0.2 | 61 mL/min/kg | 
O=S(=O)(Nc1ncc(F)s1)c1cc(Cl)c(NCC23CCCN2CCC3)cc1F | 55% | 1 | 230 mL/min/kg | 
O=S(=O)(Nc1nccs1)c1cc(Cl)c(NC[C@]23CCCN2C[C@@H](F)C3)cc1F | 57% | 1.5 | 810 mL/min/kg | 
O=S(=O)(Nc1cscn1)c1cc(Cl)c(NCC23CCCN2CCC3)cc1F |  | 0.7 |  | 
O=S(=O)(Nc1ncns1)c1cc(F)c(NCC23CCCN2CCC3)cc1F | 4% | 0 | 62 mL/min/kg | 
O=S(=O)(Nc1nccs1)c1cc(Cl)c(NCC23CCCN2CC(F)(F)C3)cc1F (configuration not stated) |  | 1.7 |  | 
CC1(C)CN2CCC[C@@]2(CNc2cc(F)c(S(=O)(=O)Nc3nccs3)cc2Cl)C1 | 45% | 1.7 | 850 mL/min/kg | 
Cc1csc(NS(=O)(=O)c2cc(Cl)c(NCC34CCCN3CCC4)cc2F)n1 | 36% | 1.1 | 71 mL/min/kg | 
O=S(=O)(Nc1nccs1)c1cc(Cl)c(NCCC23CCCN2CCC3)cc1F | 30% | 0.6 | 1600 mL/min/kg | 
O=S(=O)(Nc1ncc(Cl)s1)c1cc(Cl)c(NCC23CCCN2CCC3)cc1F | 45% | 1.3 | 780 mL/min/kg | 
O=S(=O)(Nc1nccs1)c1cc(Cl)c(NC[C@@]23CCCN2C[C@H](F)C3)cc1F |  | 1.5 |  | 
O=S(=O)(Nc1cccc(F)n1)c1cc(Cl)c(NCC23CCCN2CCC3)cc1F | 26% | 1 | 610 mL/min/kg | 

Reference: ChEMBL document CHEMBL4017458, “Discovery of selective, orally bioavailable, N-linked arylsulfonamide Nav1.7 inhibitors with pain efficacy in mice” (Bioorg Med Chem Lett, 2017)
